According to US12022829B2, “Water-dispersible fine particle” (TOYOBO CO., LTD., priority 2018, dated 2024):

What was measured:
Format in all cases: cell-based
P. fluorescens biofilm [1] = assay: Anti-biofilm coat test using fine particle suspension (Test example 2); conditions: water washing, cultivation 30° C. 48 hours, CV staining
Procedure: (§1) A test piece was taken out after the cultivation and washed using normal saline, and a biofilm amount adhered on the test piece surface was measured. The biofilm amount was measured by CV (crystal violet) staining method. Specifically, a test piece was immersed in 0.1 wt % CV aqueous solution for 30 minutes, an excessive CV was washed out using water, an extraction from the stained region was carried out using 98% ethanol, and an absorbance of 500 nm was measured.
P. fluorescens, which is a gram-negative bacillus having high productivity of a biofilm, was used for evaluating an anti-biofilm property. A dried standard product of P. fluorescens was obtained as NBRC No. 14160 and recovered by the following method. DAIGO growth medium 802 (8.4 g) manufactured by Wako Pure Chemical Corporation and 300 mL of purified water were weighed and added into a beaker, and the mixture was stirred at room temperature for about 30 minutes for dispersion. A recovering liquid was sterilized by an autoclave, 0.2 mL of the recovering liquid was taken out using a micropipette and added into an ample of a dried standard product of P. fluorescens, and the mixture was stirred. Separately, 25 mL of SCD broth (Soybean-Casein Digest Broth) manufactured by Wako Pure Chemical Corporation was added in a flask, and […] of the above P. fluorescens suspension was subsequently added thereto. The bacterium was cultivated at 30° C. and a velocity of 150 rpm in a constant temperature incubator shaker for 24 hours for cultivation. After the cultivation, the bacterium was added in 80% glycerol, and the bacterium liquid was preserved at −80° C.
A fine particle suspension of ε-PL was prepared by using the GPE-ized polycarboxylic acid of Production examples 1 to 5 as a test sample liquid for an anti-biofilm coat. A fine particle suspension was prepared by mixing the both of the aqueous solutions of the GPE-ized polycarboxylic acid and ε-PL so that a concentration of the GPE-ized polycarboxylic acid in the fine particle suspension became 0.5 wt % and a concentration of ε-PL became 0.045 wt %. For comparison, a simple ε-PL aqueous solution, an IPMP (4-isopropyl-3-methylphenol, manufactured by Wako Pure Chemical Corporation) ethanol solution and a silver nano particle aqueous suspension manufactured by JAPAN ION Corporation having concentrations of 0.045 wt % were respectively produced. […] The test piece coated with each drug was stirred at 25° C. and 350 rpm for 1 minute for washing with water as a water section environment. The test piece after the water washing was immersed in a broth containing the bacterium liquid prepared in Test example 1, and a biofilm was formed by a cultivation at 30° C. for 48 hours. A concentration was adjusted to 10 cfu/mL by diluting the P. fluorescens liquid with SCD broth. The test piece was taken cut after the cultivation, washed using normal saline, and an amount of a biofilm adhered on the surface of the test piece was measured. A biofilm inhibition rate was calculated by the following formula: Biofilm inhibition rate (%)=(measurement value of untreated test piece−measurement value of test piece coated with test liquid)/(measurement value of untreated test piece)×100

P. fluorescens biofilm [2] = assay: Biofilm removing effect test after immersion in drug (Test example 3); conditions: 1-week biofilm in 48-well microplate, CV staining
Procedure: as §1
SCD broth containing the bacterial liquid of P. fluorescens having a concentration of 10^6 cfu/mL prepared in Test example 1 was added to 48-well microplate manufactured by Sumitomo Bakelite Co., Ltd. for cultivation at 30° C. for 1 week to form a biofilm in the plate. The bacterial liquid as supernatant was removed, and the residue was rinsed using a sterilized normal saline and dried. The test liquid was prepared by a similar method to Test example 2. Specifically, a fine particle suspension was prepared so that a concentration of GPE-ized polycarboxylic acid became 0.5 wt % and a concentration of ε-PL became 0.04 wt % in the suspension. In a microplate in which a biofilm was formed, 1 mL of each test liquid was added to immerse the biofilm for 1 minute, 10 minutes, 30 minutes or 60 minutes to evaluate a biofilm removing effect at every immersion (contact) time. The test drug was removed after a lapse of the immersion (contact) time, and the residue was immediately washed using 1 mL of normal saline two times and dried to measure a biofilm amount by CV staining method described in Test example 2. A biofilm removing rate was calculated by the following formula: Biofilm removing rate (%)=(measurement value of untreatment−measurement value after immersion in test liquid)/(measurement value of untreatment)×100

P. fluorescens biofilm [3] = assay: Biofilm inhibition test after immersion in (contact with) drug (Test example 4); conditions: then re-cultivation in SCD broth 30° C. 24 hours, CV staining
Procedure: as §1
In a microplate of Test example 3 in which a biofilm was formed, 1 mL of each test drug was added for an immersion for 1 minute, 10 minutes, 30 minutes or 60 minutes. The test drug was removed after the contact time, and the residue was washed using 1 mL of normal saline two times. In the microplate, 1 mL of SCD broth was added for a cultivation at 30° C. for 24 hours to form a biofilm again and to evaluate a re-inhibition property of a biofilm. An amount of a biofilm was measured after the cultivation. An amount of a biofilm was measured by CV staining method described in Test example 2. A biofilm inhibition rate was calculated by the following formula: Biofilm inhibition rate (6)=(measurement value of untreatment−measurement value after immersion in test liquid)/(measurement value of untreatment)×100

[4] = test system: P. fluorescens in biofilm; assay: Biofilm bactericidal property test (Test example 5); conditions: untreated 40000 cfu/well
Procedure: A number of a viable bacterium in the biofilm was measured by adding 1 mL of normal saline to the surface material on which a biofilm was adsorbed, destroying the biofilm using a ultrasonic washing machine, collecting an elution liquid, diluting the elution liquid from 10^2 to 10^8 using normal saline, inoculating the diluted solution into petri Film™ broth manufactured by 3M, performing cultivation at 30° C. for 1 week, and counting colonies.
After the test drug was contacted with a biofilm, a bactericidal property against the bacterium in the biofilm was tested. In a microplate of Test example 3 in which a biofilm was formed, 1 mL of each test drug was added for an immersion for 1 minute, 10 minutes, 30 minutes and 60 minutes. The test drug was removed after the lapse of contact time, and the reside was immediately washed using 1 mL of normal saline two times. In the microplate, 1 mL of normal saline was added. The bacterium was eluted in the normal saline by treating the mixture for 1 minute using an ultrasound bath to destroy the biofilm. The eluate was diluted from 10^2 to 10^8 using sterilized normal saline, and inoculated to Petrifilm™ broth manufactured by 3M for a cultivation at 30° C. for 1 week. Then, the number of colonies was counted and the number of viable bacteria was measured. The number of viable bacteria was 40000 cfu/well in the untreatment case; on the one hand, it was confirmed that the bacteria number in a biofilm was reduced by an immersion in the fine particle suspension in Examples 37 to 39 as the number of viable bacteria was reduced.

[5] = adhesion amount 0.01 μg/cm^2 on polyvinyl chloride test piece
[6] = adhesion amount 0.02 μg/cm^2 on polyvinyl chloride test piece
[7] = adhesion amount 0.04 μg/cm^2 on polyvinyl chloride test piece
[8] = adhesion amount 0.08 μg/cm^2 on polyvinyl chloride test piece
[9] = adhesion amount 0.12 μg/cm^2 on polyvinyl chloride test piece

Cc1cc(O)ccc1C(C)C [compound 17, 4-isopropyl-3-methylphenol]
Biofilm inhibition rate (P. fluorescens biofilm [1]; [5]): 41%

Cc1cc(O)ccc1C(C)C [compound 18, 4-isopropyl-3-methylphenol]
Biofilm inhibition rate (P. fluorescens biofilm [1]; [6]): 48%

Cc1cc(O)ccc1C(C)C [compound 19, 4-isopropyl-3-methylphenol]
Biofilm inhibition rate (P. fluorescens biofilm [1]; [7]): 57%

Cc1cc(O)ccc1C(C)C [compound 20, 4-isopropyl-3-methylphenol]
Biofilm inhibition rate (P. fluorescens biofilm [1]; [8]): 66%

Cc1cc(O)ccc1C(C)C [compound 21, 4-isopropyl-3-methylphenol]
Biofilm inhibition rate (P. fluorescens biofilm [1]; [9]): 75%

Cc1cc(O)ccc1C(C)C [compound 24, 4-isopropyl-3-methylphenol]
Removal rate of biofilm every contact time (Test example 3) (P. fluorescens biofilm [2]; contact time 1 min): 60%
Removal rate of biofilm every contact time (Test example 3) (P. fluorescens biofilm [2]; contact time 10 min): 56%
Removal rate of biofilm every contact time (Test example 3) (P. fluorescens biofilm [2]; contact time 30 min): 61%
Removal rate of biofilm every contact time (Test example 3) (P. fluorescens biofilm [2]; contact time 60 min): 52%
Removal rate of biofilm every contact time (Test example 4) (P. fluorescens biofilm [3]; contact time 1 min): 22%
Removal rate of biofilm every contact time (Test example 4) (P. fluorescens biofilm [3]; contact time 10 min): 33%
Removal rate of biofilm every contact time (Test example 4) (P. fluorescens biofilm [3]; contact time 30 min): 37%
Removal rate of biofilm every contact time (Test example 4) (P. fluorescens biofilm [3]; contact time 60 min): 57%

Cc1cc(O)ccc1C(C)C [compound 27, 4-isopropyl-3-methylphenol]
Number of viable bacteria in biofilm every contact time ([4]; contact time 1 min): 1900 cfu/well
Number of viable bacteria in biofilm every contact time ([4]; contact time 10 min): 800 cfu/well
Number of viable bacteria in biofilm every contact time ([4]; contact time 30 min): 800 cfu/well
Number of viable bacteria in biofilm every contact time ([4]; contact time 60 min): 800 cfu/well

ε-poly-L-lysine [compound 7]
Biofilm inhibition rate (P. fluorescens biofilm [1]; [5]): 5%

ε-poly-L-lysine [compound 8]
Biofilm inhibition rate (P. fluorescens biofilm [1]; [6]): 29%

ε-poly-L-lysine [compound 9]
Biofilm inhibition rate (P. fluorescens biofilm [1]; [7]): 45%

ε-poly-L-lysine [compound 10]
Biofilm inhibition rate (P. fluorescens biofilm [1]; [8]): 52%

ε-poly-L-lysine [compound 11]
Biofilm inhibition rate (P. fluorescens biofilm [1]; [9]): 57%

ε-poly-L-lysine [compound 22]
Removal rate of biofilm every contact time (Test example 3) (P. fluorescens biofilm [2]; contact time 1 min): 87%
Removal rate of biofilm every contact time (Test example 3) (P. fluorescens biofilm [2]; contact time 10 min): 87%
Removal rate of biofilm every contact time (Test example 3) (P. fluorescens biofilm [2]; contact time 30 min): 84%
Removal rate of biofilm every contact time (Test example 3) (P. fluorescens biofilm [2]; contact time 60 min): 83%
Removal rate of biofilm every contact time (Test example 4) (P. fluorescens biofilm [3]; contact time 1 min): 22%
Removal rate of biofilm every contact time (Test example 4) (P. fluorescens biofilm [3]; contact time 10 min): 38%
Removal rate of biofilm every contact time (Test example 4) (P. fluorescens biofilm [3]; contact time 30 min): 40%
Removal rate of biofilm every contact time (Test example 4) (P. fluorescens biofilm [3]; contact time 60 min): 45%

ε-poly-L-lysine [compound 25]
Number of viable bacteria in biofilm every contact time ([4]; contact time 1 min): 1200 cfu/well
Number of viable bacteria in biofilm every contact time ([4]; contact time 10 min): 1200 cfu/well
Number of viable bacteria in biofilm every contact time ([4]; contact time 30 min): 1200 cfu/well
Number of viable bacteria in biofilm every contact time ([4]; contact time 60 min): 1200 cfu/well
